Assay results published in patent US9493438B2, “4,4-difluoro-piperidine-compounds” (ROTTAPHARM BIOTECH S.R.L., priority 2012, dated 2016).

Biological target: T1, human OX1 receptors (Homo sapiens, UniProt O43613)
T1 construct: expressed in transfected cells; host or cells: CHO cells
T1 sequence (O43613 1-425): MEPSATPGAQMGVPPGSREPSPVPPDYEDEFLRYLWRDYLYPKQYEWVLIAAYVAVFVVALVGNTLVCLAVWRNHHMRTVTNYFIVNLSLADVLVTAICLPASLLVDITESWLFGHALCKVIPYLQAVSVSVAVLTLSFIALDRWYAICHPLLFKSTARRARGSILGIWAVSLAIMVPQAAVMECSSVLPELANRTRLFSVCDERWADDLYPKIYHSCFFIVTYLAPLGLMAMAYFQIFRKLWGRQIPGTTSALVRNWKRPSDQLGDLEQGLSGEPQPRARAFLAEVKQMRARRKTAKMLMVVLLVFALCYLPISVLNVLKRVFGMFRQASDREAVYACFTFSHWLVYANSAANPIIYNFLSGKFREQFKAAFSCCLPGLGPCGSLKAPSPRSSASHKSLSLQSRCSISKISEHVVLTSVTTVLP
Experiment: antagonistic activity against human OX1 receptor, [Ca2+]i fluorimetry in transfected CHO cells
Format: cell-based
Conditions: CHO cells transfected with human recombinant OX1; activated with orexin-A 3 nM; pKb = co-logarithm of apparent dissociation constant (modified Cheng Prusoff)
Experimental: Thus the plate was loaded with the calcium dye (Fluo-4NW/probenecid in HBSS, Hepes 20 mM, pH 7.4; Invitrogen) at 37° C. for 60 min. Afterward the temperature was equilibrated at 22° C. for 15 min and the [Ca2+]i measured directly on the plate by using a fluorescent plate reader (CeliLux Perkin Elmer).
Invention compounds were dissolved in DMSO, diluted in HBSS (DMSO, 0.3% final) and added to the wells. After 5 min CHO cells were activated with orexin-A, 3 nM while HEK-293 cells were activated with orexin-B, 10 nM. […] The antagonistic activity has been expressed as pKb (co-logarithm of the apparent dissociation constant calculated by using the modified Cheng Prusoff equation). The results are expressed as percent of control specific […] response ((measured specific response/control specific agonist response)×100) obtained in the presence of the test compounds.
The IC50 values (concentration causing a half-maximal inhibition of the control specific agonist response) were determinated by non-linear regression analysis of the concentration curves generated with mean replicate values using hill equation curve fitting. The IC50 values are obtained by the arithmetical mean of at least two experiments.

Compound | Kb | PKb OX1
Cc1ccc(-c2cccnc2)c(C(=O)N2CCC(F)(F)CC2CNc2ccc(C(F)(F)F)cn2)n1 (racemic) [Compound 50] | 5.01 nM | 
O=C(c1nccc2ccccc12)N1CCC(F)(F)CC1CNc1ncc(C(F)(F)F)cc1F (racemic) [Compound 33, (RS)(4,4-difluoro-2-(((3-fluoro-5-(trifluoromethyl)pyridin-2-yl)amino)methyl)piperidin-1-yl)(isoquinolin-1-yl)methanone] | 2 nM | 
O=C(c1nccc2ccccc12)N1CCC(F)(F)CC1CNc1ccc(Cl)cn1 (single isomer, unassigned; isomer a) [Compound 23, (2-(((5-chloropyridin-2-yl)amino)methyl)-4,4-difluoropiperidin-1-yl)(isoquinolin-1-yl)methanone (isomer A)] | 79.4 nM | 
O=C(c1cc(Cl)ccc1-c1ncccn1)N1CCC(F)(F)CC1CNc1ccc(Cl)cn1 (racemic) [Compound 19, (RS)(5-chloro-2-(pyrimidin-2-yl)phenyl)(2-(((5-chloropyridin-2-yl)amino)methyl)-4,4-difluoropiperidin-1-yl)methanone] | 5.01 nM | 
Cc1ccc(-c2ncccn2)c(C(=O)N2CCC(F)(F)CC2CNc2ccc(Cl)cn2)c1 (racemic) [Compound 6, (RS)(2-(((5-chloropyridin-2-yl)amino)methyl)-4,4-difluoropiperidin-1-yl)(5-methyl-2-(pyrimidin-2-yl)phenyl)methanone] | 5.01 nM | 
O=C(c1nc(C(F)(F)F)ccc1-c1ncccn1)N1CCC(F)(F)CC1CNc1ccc(C(F)(F)F)cn1 (single isomer, unassigned; isomer a) [Compound 40, (4,4-difluoro-2-(((5-(trifluoromethyl)pyridin-2-yl)amino)methyl)piperidin-1-yl)(3-(pyrimidin-2-yl)-6-(trifluoromethyl)pyridin-2-yl)methanone (isomer A)] | 63.1 nM | 
Cc1ccc(-n2nccn2)c(C(=O)N2CCC(F)(F)CC2CNc2ccc(Cl)cn2)n1 (single isomer, unassigned; isomer a) [Compound 8, (2-(((5-chloropyridin-2-yl)amino)methyl)-4,4-difluoropiperidin-1-yl)(6-methyl-3-(2H-1,2,3-triazol-2-yl)pyridin-2-yl)methanone (isomer A)] | 1.58 nM | 
Cc1ccc(-c2ncccn2)c(C(=O)N2CCC(F)(F)CC2CNc2ccc(Cl)cn2)n1 (single isomer, unassigned; isomer b) [Compound 17, (2-(((5-chloropyridin-2-yl)amino)methyl)-4,4-difluoropiperidin-1-yl)(6-methyl-3-(pyrimidin-2-yl)pyridin-2-yl)methanone (isomer B)] | 100 nM | 
Cc1ncc(-c2ccc(F)cc2C(=O)N2CCC(F)(F)CC2CNc2ccc(C(F)(F)F)cn2)cn1 (racemic) [Compound 30, (RS)(4,4-difluoro-2-(((5-(trifluoromethyl)pyridin-2-yl)amino)methyl)piperidin-1-yl)(5-fluoro-2-(2-methylpyrimidin-5-yl)phenyl)methanone] | 25.1 nM | 
O=C(c1ccccc1OCC1CC1)N1CCC(F)(F)CC1CNc1ccc(Cl)cn1 (racemic) [Compound 12, (RS)(2-(((5-chloropyridin-2-yl)amino)methyl)-4,4-difluoropiperidin-1-yl)(2-(cyclopropylmethoxy)phenyl)methanone] | 2 nM | 
Cc1nc(C(=O)N2CCC(F)(F)CC2CNc2ccc(Cl)cn2)c(-c2ccccc2)s1 (racemic) [Compound 1, (RS)(2-(((5-chloropyridin-2-yl)amino)methyl)-4,4-difluoropiperidin-1-yl)(2-methyl-5-phenylthiazol-4-yl)methanone] | 10 nM | 
(RS)(4,4-difluoro-2-(((5-(trifluoromethyl)pyridin-2-yl)amino)methyl)piperidin-1-yl)(6-methyl-3-(pyrimidin-2-yl)pyridin-2-yl)methanone [Compound 42] |  | 8.2
Cc1ccc(-c2ncccn2)c(C(=O)N2CCC(F)(F)CC2CNc2ccc(Cl)cn2)n1 (racemic) [Compound 14, (RS)(2-(((5-chloropyridin-2-yl)amino)methyl)-4,4-difluoropiperidin-1-yl)(6-methyl-3-(pyrimidin-2-yl)pyridin-2-yl)methanone] | 2.51 nM | 
O=C(c1ccnc2ccccc12)N1CCC(F)(F)CC1CNc1ccc(C(F)(F)F)cn1 (racemic) [Compound 35] | 31.6 nM | 
Cc1ccc(-c2ncccn2)c(C(=O)N2CCC(F)(F)CC2CNc2ccc(Cl)cn2)c1 (single isomer, unassigned; isomer a) [Compound 7, (2-(((5-chloropyridin-2-yl)amino)methyl)-4,4-difluoropiperidin-1-yl)(5-methyl-2-(pyrimidin-2-yl)phenyl)methanone (isomer A)] | 2.51 nM | 
O=C(c1ccccc1OC1CCCC1)N1CCC(F)(F)CC1CNc1ccc(Cl)cn1 (racemic) [Compound 13, (RS)(2-(((5-chloropyridin-2-yl)amino)methyl)-4,4-difluoropiperidin-1-yl)(2-(cyclopentyloxy)phenyl)methanone] | 100 nM | 
Cc1nc(C(=O)N2CCC(F)(F)CC2CNc2ccc(Cl)cn2)c(-c2ccccc2)s1 (single isomer, unassigned; isomer a) [Compound 2, (2-(((5-chloropyridin-2-yl)amino)methyl)-4,4-difluoropiperidin-1-yl)(2-methyl-5-phenylthiazol-4-yl)methanone (isomer A)] | 2 nM | 
Cc1ccc(-c2ncccn2)c(C(=O)N2CCC(F)(F)CC2CNc2ccc(C#N)cn2)n1 (racemic) [Compound 29] | 15.8 nM | 
Cc1ccc(-c2ncccn2)c(C(=O)N2CCC(F)(F)CC2COc2ccc(C(F)(F)F)cn2)n1 (racemic) [Compound 48, (±)(4,4-difluoro-2-(((5-(trifluoromethyl)pyridine-2-yl)oxy)methyl)piperidin-1-yl)(6-methyl-3-(pyrimidin-2-yl)pyridin-2-yl)methanone] | 7.94 nM | 
CCOc1ccccc1C(=O)N1CCC(F)(F)CC1CNc1ccc(Cl)cn1 (racemic) [Compound 10, (RS)(2-(((5-chloropyridin-2-yl)amino)methyl)-4,4-difluoropiperidin-1-yl)(2-ethoxyphenyl)methanone] | 7.94 nM | 
O=C(c1nccc2ccccc12)N1CCC(F)(F)CC1CNc1ccc(C(F)(F)F)cn1 (racemic) [Compound 34, (RS)(4,4-difluoro-2-(((5-(trifluoromethyl)pyridin-2-yl)amino)methyl)piperidin-1-yl)(isoquinolin-1-yl)methanone] | 2.51 nM | 
Cc1ccc(-n2nccn2)c(C(=O)N2CCC(F)(F)CC2CNc2ccc(C(F)(F)F)cn2)c1 (racemic) [Compound 5, (RS)(4,4-difluoro-2-(((5-(trifluoromethyl)pyridin-2-yl)amino)methyl)piperidin-1-yl)(5-methyl-2-(2H-1,2,3-triazol-2-yl)phenyl)methanone] | 5.01 nM | 
Cc1ccc(-c2ccccc2)c(C(=O)N2CCC(F)(F)CC2CNc2ccc(C(F)(F)F)cn2)n1 (single isomer, unassigned; isomer a) [Compound 37, (4,4-difluoro-2-(((5-(trifluoromethyl)pyridin-2-yl)amino)methyl)piperidin-1-yl)(6-methyl-3-phenylpyridin-2-yl)methanone (isomer A)] | 200 nM | 
Cc1ccc(-c2ccncc2)c(C(=O)N2CCC(F)(F)CC2CNc2ccc(C(F)(F)F)cn2)n1 (racemic) [Compound 52, (RS) (4,4-difluoro-2-(((5-(trifluoromethyl)pyridin-2-yl)amino)methyl)piperidin-1-yl)(6-methyl-[3,4′-bipyridin]-2-yl)methanone] | 39.8 nM | 
O=C(c1nccc2ccccc12)N1CCC(F)(F)CC1CNc1ccc(Cl)cn1 (racemic) [Compound 22, (RS)(2-(((5-chloropyridin-2-yl)amino)methyl)-4,4-difluoropiperidin-1-yl)(isoquinolin-1-yl)methanone] | 0.631 nM | 
O=C(c1ccncc1-c1ncccn1)N1CCC(F)(F)CC1CNc1ccc(Cl)cn1 (racemic) [Compound 28, (RS)(2-(((5-chloropyridin-2-yl)amino)methyl)-4,4-difluoropiperidin-1-yl)(3-(pyrimidin-2-yl)pyridin-4-yl)methanone] | 15.8 nM | 
Cc1ccc(-n2nccn2)c(C(=O)N2CCC(F)(F)CC2CNc2ccc(Cl)cn2)n1 (single isomer, unassigned; isomer b) [Compound 9, (2-(((5-chloropyridin-2-yl)amino)methyl)-4,4-difluoropiperidin-1-yl)(6-methyl-3-(2H-1,2,3-triazol-2-yl)pyridin-2-yl)methanone (isomer B)] | 15.8 nM | 
